Our source for the Emax values is ChEMBL document CHEMBL2034901, “Novel 3,6,7-substituted pyrazolopyrimidines as positive allosteric modulators for the hydroxycarboxylic acid receptor 2 (GPR109A)” (J Med Chem, 2012).

In assay [1] the target is Hydroxycarboxylic acid receptor 2 (Homo sapiens) (UniProt Q8TDS4). As to the kind of experiment: Positive allosteric activity at GPR109A in human HEK cells assessed as shift in EC50 of nicotinic acid at 3 uM pretreated for 30 mins measured after 90 mins by [35S]-GTPgammaS binding assay. Format: functional, cell-based. As to conditions: HEK293. For orientation: Binding of GTPγS marks nucleotide exchange on a G protein.
Hydroxycarboxylic acid receptor 2 (Homo sapiens), sequence (Q8TDS4 whole entry): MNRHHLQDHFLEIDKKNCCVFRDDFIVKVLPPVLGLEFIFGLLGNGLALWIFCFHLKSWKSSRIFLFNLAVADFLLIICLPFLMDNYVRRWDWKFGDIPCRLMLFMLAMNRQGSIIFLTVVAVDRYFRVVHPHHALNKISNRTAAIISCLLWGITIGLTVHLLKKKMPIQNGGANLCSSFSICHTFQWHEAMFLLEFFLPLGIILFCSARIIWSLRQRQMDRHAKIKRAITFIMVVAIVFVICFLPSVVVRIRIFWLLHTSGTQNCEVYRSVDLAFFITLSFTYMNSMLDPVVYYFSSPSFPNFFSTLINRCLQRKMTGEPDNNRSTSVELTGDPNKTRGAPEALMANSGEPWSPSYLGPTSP

Assay [2] shares this target. As to the kind of experiment: Positive allosteric activity at GPR109A in human HEK cells assessed as shift in EC50 of nicotinic acid at 1 uM pretreated for 30 mins measured after 90 mins by [35S]-GTPgammaS binding assay. It is filed as functional, cell-based. The following applies: HEK293.

Usually Emax stands for the maximal effect, on the per cent scale that the assay sets. Take `Cc1c(C(=O)NCCOc2ccccc2)cnc2c(-c3ccc(Cl)c(Cl)c3)cnn12`: the Emax in assay [1] came to 114%.
For `Cc1c(C(=O)NCCNc2ccccc2)cnc2c(-c3ccc(C(C)C)cc3)cnn12`, the Emax in assay [1] is 129%; in assay [2], 120%.
The matching figures for `CCc1c(C(=O)NCCOc2ccccc2)cnc2c(-c3ccc(C(C)C)cc3)cnn12`: 129% and 122%.
The matching figures for `Cc1c(C(=O)NCCOc2ccccc2)cnc2c(-c3ccc(OC(C)C)cc3)cnn12`: 123% and 111%.
